Reference: patent US9776979B2, “EBI2 modulators” (Sanford-Burnham Medical Research Institute, priority 2013, dated 2017)

What follows are compounds tested against EBI2 (Homo sapiens, UniProt P32249) (assay: Cell-based luminescent assay (EBI2 modulation)). Details: not given.
EBI2, sequence (P32249 whole entry): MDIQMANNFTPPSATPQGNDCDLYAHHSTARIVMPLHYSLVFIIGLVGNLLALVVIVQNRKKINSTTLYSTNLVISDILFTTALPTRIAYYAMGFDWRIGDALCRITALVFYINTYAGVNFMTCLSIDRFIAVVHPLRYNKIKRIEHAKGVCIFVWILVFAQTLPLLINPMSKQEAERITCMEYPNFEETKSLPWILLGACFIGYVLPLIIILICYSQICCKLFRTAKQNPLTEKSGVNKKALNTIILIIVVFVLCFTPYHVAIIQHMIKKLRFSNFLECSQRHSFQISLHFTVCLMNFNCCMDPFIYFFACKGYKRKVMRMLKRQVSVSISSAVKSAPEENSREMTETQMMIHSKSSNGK
How it was run: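 Cells plated overnight at 37° C, then exposed to compound at 4-5 uM final with 80 nM 7a,25-OHC agonist for 60 min at 37° C. Luminescence read after 60 min detection at 25° C in the dark; values normalized to neutral and stimulator controls and plate-pattern corrected.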
O=C(c1cc2cc(Cl)ccc2[nH]1)N1CCC(Nc2cccc(F)c2)CC1 [Compound C252, 5-chloroindol-2-yl 4-[(3-fluorophenyl)amino]piperidyl ketone] was tested, and the IC50 was < 100 nM. In the case of O=C(c1cc2cc(Cl)ccc2[nH]1)N1CCC(Nc2ccc(F)cc2F)CC1 [Compound C258, 4-[(2,4-difluorophenyl)amino]piperidyl 5-chloroindol-2-yl ketone], the IC50 is reported as < 100 nM. Cc1ccc(CN2CCN(C(=O)/C=C/c3ccccc3)CC2)cc1 [Compound C260] was tested, and the IC50 was < 100 nM. In the case of O=C(c1cc2cc(Cl)ccc2[nH]1)N1CCC(Nc2cc(F)cc(F)c2)CC1 [Compound C273, 4-[(3,5-difluorophenyl)amino]piperidyl 5-chloroindol-2-yl ketone], the IC50 is reported as < 100 nM.

Same assay, conditions: cell-based luminescence; 7a,25-OHC final assay concentration 80 nM; 60 minutes incubation; read-out: IC50
For O=C(/C=C/c1ccccc1)N1CCN(Cc2ccc(F)cc2)CC1 [Compound C248, (2E)-1-{4-[(4-fluorophenyl)methyl]piperazinyl}-3-phenylprop-2-en-1-one], the IC50 was < 100 nM. For O=C(C#Cc1ccc(Cl)c(Cl)c1)N1CCN(C(=O)c2ccc(C(F)(F)F)cc2)CC1 [Compound C249, 3-(3,4-dichlorophenyl)-1-(4-{[4-(trifluoromethyl)phenyl]carbonyl}piperazinyl)prop-2-yn-1-one], the IC50 was < 100 nM. O=C(c1cc2cc(C(F)(F)F)ccc2[nH]1)N1CCN(Cc2cc(F)cc(F)c2)CC1 [Compound C251, 4-[(3,5-difluorophenyl)methyl]piperazinyl 5-(trifluoromethyl)indol-2-yl ketone] was tested, and the IC50 was < 100 nM. With O=C(C#Cc1ccc(F)cc1)N1CCN(C(=O)c2ccc(C(F)(F)F)cc2)CC1 [Compound C253, 3-(4-fluorophenyl)-1-(4-{[4-(trifluoromethyl)phenyl]carbonyl}piperazinyl)prop-2-yn-1-one] the IC50 was < 100 nM. With O=C(c1ccc(Cl)cc1)N1CCN(C(=O)c2cc3ccc(Cl)cc3[nH]2)CC1 [Compound C255, 6-chloroindol-2-yl 4-[(4-chlorophenyl)carbonyl]piperazinyl ketone] the IC50 was < 100 nM. In the case of COc1ccc(C(=O)N2CCN(C(=O)C=Cc3ccc4c(c3)OCO4)CC2)cc1 [Compound C256, 3-(2H-benzo[3,4-d]1,3-dioxolen-5-yl)-1-{4-[(4-methoxyphenyl)carbonyl]piperazinyl}prop-2-en-1-one], the IC50 is reported as < 100 nM. With O=C(c1cnc2ccc(Cl)cc2c1)N1CCN(C(c2ccccc2)c2ccccc2)CC1 [Compound C257, 4-(diphenylmethyl)piperazinyl 6-chloro(3-quinolyl) ketone] the IC50 was < 100 nM. For CCCc1ccc(S(=O)(=O)N2CCN(C(=O)/C=C/c3ccc(F)cc3)CC2)cc1 [Compound C259, (2E)-3-(4-fluorophenyl)-1-{4-[(4-propylphenyl)sulfonyl]piperazinyl}prop-2-en-1-one], the IC50 was < 100 nM. With CC(C)c1ccc(S(=O)(=O)N2CCN(C(=O)/C=C/c3ccc(F)cc3)CC2)cc1 [Compound C261, (2E)-3-(4-fluorophenyl)-1-(4-{[4-(methylethyl)phenyl]sulfonyl}piperazinyl)prop-2-en-1-one] the IC50 was < 100 nM. In the case of O=C(C#Cc1cccc(Cl)c1Cl)N1CCN(Cc2ccc(F)cc2)CC1 [Compound C262, 3-(2,3-dichlorophenyl)-1-{4-[(4-fluorophenyl)methyl]piperazinyl}prop-2-yn-1-one], the IC50 is reported as < 100 nM. In the case of O=C(c1cc2c(F)cc(F)cc2[nH]1)N1CCN(C(c2ccccc2)c2ccccc2)CC1 [Compound C263, 4,6-difluoroindol-2-yl 4-(diphenylmethyl)piperazinyl ketone], the IC50 is reported as < 100 nM. For O=C(c1ccc(Br)cc1)N1CCN(C(=O)c2cc3ccc(Br)cc3[nH]2)CC1 [Compound C264, 6-bromoindol-2-yl 4-[(4-bromophenyl)carbonyl]piperazinyl ketone], the IC50 was < 100 nM. With O=C(/C=C/c1cccc(C(F)(F)F)c1)N1CCN(C(c2ccccc2)c2ccccc2)CC1 [Compound C265, (2E)-1-[4-(diphenylmethyl)piperazinyl]-3-[3-(trifluoromethyl)phenyl]prop-2-en-1-one] the IC50 was < 100 nM. In the case of O=C(C#Cc1ccc2c(c1)OCO2)N1CCN(C(=O)c2ccc(C(F)(F)F)cc2)CC1 [Compound C266, 3-(2H-benzo[3,4-d]1,3-dioxolen-5-yl)-1-(4-{[4-(trifluoromethyl)phenyl]carbonyl}piperazinyl)prop-2-yn-1-one], the IC50 is reported as < 100 nM. For O=C(/C=C/c1ccc(Br)cc1)N1CCN(C(=O)c2cccc(B(O)O)c2)CC1 [Compound C267, (E)-(3-(4-(3-(4-bromophenyl)acryloyl)piperazine-1-carbonyl)phenyl)boronic acid], the IC50 was < 100 nM. For O=C(c1ccc(F)cc1)N1CCN(C(=O)c2cc3ccc(Cl)cc3[nH]2)CC1 [Compound C268, 6-chloroindol-2-yl 4-[(4-fluorophenyl)carbonyl]piperazinyl ketone], the IC50 was < 100 nM. With O=C(/C=C/c1ccc(Br)cc1)N1CCN(Cc2ccccc2F)CC1 [Compound C269, (2E)-3-(4-bromophenyl)-1-{4-[(2-fluorophenyl)methyl]piperazinyl}prop-2-en-1-one] the IC50 was < 100 nM. For O=C(/C=C/c1ccccc1)N1CCN(CCc2ccc(Cl)cc2)CC1 [Compound C270, (2E)-1-{4-[2-(4-chlorophenyl)ethyl]piperazinyl}-3-phenylprop-2-en-1-one], the IC50 was < 100 nM. In the case of O=C(c1cccc(C(F)(F)F)c1)N1CCN(C(=O)c2cc3cc(C(F)(F)F)ccc3[nH]2)CC1 [Compound C271, 5-(trifluoromethyl)indol-2-yl 4-{[3-(trifluoromethyl)phenyl]carbonyl}piperazinyl ketone], the IC50 is reported as < 100 nM. For O=C(c1cc2cc(Cl)ccc2[nH]1)N1CCC(Oc2cccc(Cl)c2)CC1 [Compound C272, 5-chloroindol-2-yl 4-(3-chlorophenoxy)piperidyl ketone], the IC50 was < 100 nM. In the case of COc1ccc(CN2CCN(C(=O)C#Cc3ccc(Br)cc3)CC2)cc1 [Compound C274, 3-(4-bromophenyl)-1-{4-[(4-methoxyphenyl)methyl]piperazinyl}prop-2-yn-1-one], the IC50 is reported as < 100 nM. Compound O=C(c1cnc2ccccc2n1)N1CCN(C(c2ccccc2)c2ccccc2)CC1 [Compound C276, 4-(diphenylmethyl)piperazinyl quinoxalin-2-yl ketone] has an IC50 of 100 to 500 nM. With O=C(/C=C/c1ccccc1C(F)(F)F)N1CCN(S(=O)(=O)c2ccc(Br)cc2)CC1 [Compound C277, (2E)-1-{4-[(4-bromophenyl)sulfonyl]piperazinyl}-3-[2-(trifluoromethyl)phenyl]prop-2-en-1-one] the IC50 was 100 to 500 nM. Work on O=C(c1cc2ccccn2n1)N1CCN(C(=O)c2cc3cc(Cl)ccc3[nH]2)CC1 [Compound C278, 5-chloroindol-2-yl 4-(8-hydropyrazolo[1,5-a]pyridin-2-ylcarbonyl)piperazinyl ketone] yielded an IC50 of 100 to 500 nM. With O=C(c1cn2ccccc2n1)N1CCN(C(=O)c2cc3cc(Cl)ccc3[nH]2)CC1 [Compound C279, 5-chloroindol-2-yl 4-(4-hydroimidazo[1,2-a]pyridin-2-ylcarbonyl)piperazinyl ketone] the IC50 was 100 to 500 nM. For COc1cc2cc(C(=O)N3CCN(C(c4ccccc4)c4ccccc4)CC3)[nH]c2cc1OC [Compound C280, 5,6-dimethoxyindol-2-yl 4-(diphenylmethyl)piperazinyl ketone], the IC50 was 100 to 500 nM. In the case of O=C(C#Cc1cccc(Cl)c1Cl)N1CCN(Cc2ccc(C(F)(F)F)cc2)CC1 [Compound C281, 3-(2,3-dichlorophenyl)-1-(4-{[4-(trifluoromethyl)phenyl]methyl}piperazinyl)prop-2-yn-1-one], the IC50 is reported as 100 to 500 nM. NC(=O)c1ccc(C(=O)N2CCN(C(=O)c3cc4cc(Cl)ccc4[nH]3)CC2)cc1 [Compound C282, 4-({4-[(5-chloroindol-2-yl)carbonyl]piperazinyl}carbonyl)benzamide] was tested, and the IC50 was 100 to 500 nM. Work on O=C(c1ccc2nc(C(F)F)[nH]c2c1)N1CCN(C(c2ccccc2)c2ccccc2)CC1 [Compound C283, 2-(difluoromethyl)benzimidazol-5-yl 4-(diphenylmethyl)piperazinyl ketone] yielded an IC50 of 100 to 500 nM. With O=C(C#Cc1ccc(Cl)c(Cl)c1)N1CCN(Cc2ccc(F)cc2)CC1 [Compound C284, 3-(3,4-dichlorophenyl)-1-{4-[(4-fluorophenyl)methyl]piperazinyl}prop-2-yn-1-one] the IC50 was 100 to 500 nM. With O=C(c1cc2cc(Cl)ccc2[nH]1)N1CCN(C(=O)c2cccnc2Cl)CC1 [Compound C285, 4-[(2-chloro(3-pyridyl))carbonyl]piperazinyl 5-chloroindol-2-yl ketone] the IC50 was 100 to 500 nM. With Cn1c(C(=O)N2CCN(C(=O)OC(C)(C)C)CC2)cc2ccccc21 [Compound C286, tert-butyl 4-[(1-methylindol-2-yl)carbonyl]piperazinecarboxylate] the IC50 was 100 to 500 nM. Work on O=C(C#Cc1ccc(F)cc1)N1CCN(C(=O)c2ccc(F)cc2C(F)(F)F)CC1 [Compound C287, 3-(4-fluorophenyl)-1-(4-{[4-fluoro-2-(trifluoromethyl)phenyl]carbonyl}piperazinyl)prop-2-yn-1-one] yielded an IC50 of 100 to 500 nM. O=C(c1cc2cc(Cl)ccc2[nH]1)N1CCN(C(=O)c2nc3ccccc3[nH]2)CC1 [Compound C288, 4-(benzimidazol-2-ylcarbonyl)piperazinyl 5-chloroindol-2-yl ketone] was tested, and the IC50 was 100 to 500 nM. O=C(c1cc2cc(Cl)ccc2[nH]1)N1CCC(Oc2ccccn2)CC1 [Compound C289, 5-chloroindol-2-yl 4-(2-pyridyloxy)piperidyl ketone] gave an IC50 of 100 to 500 nM. O=C(c1csc2ccccc12)N1CCN(C(c2ccccc2)c2ccccc2)CC1 [Compound C290, benzo[b]thiophen-3-yl 4-(diphenylmethyl)piperazinyl ketone] showed an IC50 of 100 to 500 nM. O=C(c1ccc(C(F)(F)F)cc1)N1CCN(C(=O)c2cc3ccc(F)cc3[nH]2)CC1 [Compound C292, 6-fluoroindol-2-yl 4-{[4-(trifluoromethyl)phenyl]carbonyl}piperazinyl ketone] gave an IC50 of 100 to 500 nM. Compound O=C(c1cc2ccc(Br)cc2[nH]1)N1CCN(Cc2ccc(F)cc2)CC1 [Compound C293, 6-bromoindol-2-yl 4-[(4-fluorophenyl)methyl]piperazinyl ketone] has an IC50 of 100 to 500 nM.
